Experimental findings from patent US9839618B2, “Compositions and methods relating to proliferative diseases” (The Penn State Research Foundation, priority 2010, dated 2017) are described below.

Experiment [1] concerns Prostate (LnCap) cancer cell line. In words: MTS assay viability IC50, LnCap. Type of experiment: cell-based. The conditions noted are these: Homo sapiens, Table 5. The procedure: Dehydroabietylamine, its N-substituted derivatives and the corresponding dihydroabietylamine and its N-substituted derivatives are tested for their capability to inhibit cell growth of cancer cell lines, including melanoma (UACC 903, 1205Lu), breast (MCF-7), fibrosarcoma (HT-1080), colon (Caco-2), and prostate (PC-3) cancer cell lines. Viability and IC50 of normal human fibroblasts and cell lines from melanoma and other malignancies following treatment with all the agents are measured using the MTS assay (Promega, Madison, Wis.). Human fibroblast FF2441 cells, metastatic melanoma cell lines 1205 Lu and UACC 903 as well as cancer cell lines representing sarcoma (HT-1080), prostate (PC-3, LNCaP), breast (MCF-7) and lung (A-549) are maintained in DMEM (Invitrogen, Carlsbad, Calif.) supplemented with 10% FBS (Hyclone, Logan, Utah) in a 5% CO2 atmosphere, humidified 37° C. incubator. 5×10^3 cells per well in 100 μL of media are plated and grown in a 96-well plate for 48 to 72 h and treated with either DMSO vehicle control or 0.62 to 40 μmol/L for 24, 48 or 72 h. IC50 values for each compound in […] for respective cell lines are measured from three independent experiments using GraphPad Prism version 4.01 (GraphPad Software, La Jolla, Calif.). FIG. 52 is a graph showing IC50 values for leelamine and compounds 4a, 4b and 5a in treated fibroblasts (FF2441) compared to melanoma cells. Selectivity ratio here is defined as ratio of activity against fibroblasts compared to activity against melanoma cells. Leelamine is relatively selective with a ratio of >6 and >4 for UACC903 and 1205Lu melanoma cells. The selectivity ratio of compound 4a is ˜4 and ˜3 for UACC903 and 1205Lu and for compound 4b is ˜4 for both cell lines. The selectivity ratio of compound 5a is ˜4 for UACC903 and >2 for 1205Lu cells.

Another experiment concerns STAT signaling pathway. In words: Western blot, STAT pathway. The class given is cell-based, human. The conditions noted are these: for STAT3 pathway (pSTAT3): Example 8, 24 hours, actives 3-5 μmol/L, inactives 30-50 μmol/L. The procedure:
For Western blot analysis, cell lysates are harvested by addition of RIPA lysis buffers containing 25 mM Tris.HCl pH 7.6, 150 mM NaCl, 1% NP-40, 1% sodium deoxycholate, 0.1% SDS, 10 mM EDTA, 1 mM sodium orthovanadate, 0.1 mM sodium molybdate, 1 mM phenylmethylsulfonyl fluoride, 20 μg/mL aprotinin, and 5 μg/mL leupeptin. The cell lysates are harvested and processed as described in Madhunapantula, S. V. et al., Cancer Res, 2007, 67:3626-36. Treatment conditions: 1-1.5×10^6 melanoma cells are plated in 100 mm culture dishes, 48 h later, treated with leelamine (3-6 μmol/L) for 3 to 24 hours. Protein lysates are collected for Western blotting. The blots are probed with antibodies according to each supplier's recommendations: antibodies to total Akt, phospho-Akt (Ser473), total PRAS40, phospho-PRAS40 (Thr246), total CREB, phospho-CREB (Ser133), phospho-p70 S6 kinase (Thr389), total Erk1/2, phospho-Erk1/2 (Thr202/Tyr 204), total CDK2, phospho-CDK2 (Thr160), phospho-Rb (Ser807/811), total Stat, phospho-Stat1 (Tyr701), Phospho-Stat-2(Tyr690), Phospho-Stat3(Ser727), phospho-Stat3(Tyr705) and cleaved PARP from Cell Signaling Technology (Danvers, Mass.); total PRAS40 from Invitrogen (Carlsbad, Calif.); cyclin D1, Bcl-2, α-enolase and secondary antibodies conjugated with horseradish peroxidase from Santa Cruz Biotechnology (Santa Cruz, Calif.). Immunoblots are developed using the enhanced chemiluminescence (ECL) detection system (Thermo Fisher Scientific, Rockford, Ill.). Intensity of protein bands is quantified using ImageJ software.
For Western blot analysis, 1×10^6 melanoma cells are plated in 100 mm culture dishes, 48 hours later, treated with empty liposomes or Nanolipolee-007 (3-6 μmol/L) for 3 to 24 hours. Protein lysates collected for Western blotting. The cell lysates are harvested in an RIPA lysis buffer containing protease and phosphatases inhibitors (Pierce Biotechnology, Rockford, Ill.). Blots are probed with antibodies according to each supplier's recommendations: antibodies to total Akt, phospho-Akt (Ser473), total PRAS40, phospho-PRAS40 (Thr246), total Bad, pBad (Ser 112) total Erk1/2, phospho-Erk1/2 (Thr202/Tyr 204), total CDK2, phospho-CDK2 (Thr160), phospho-Rb (Ser807/811), total Stat, phospho-Stat3 (Tyr705), caspase-3 and cleaved PARP from Cell Signaling Technology (Danvers, Mass.); total PRAS40 from Invitrogen (Carlsbad, Calif.); cyclin D1, α-enolase and secondary antibodies conjugated with horseradish peroxidase from Santa Cruz Biotechnology (Santa Cruz, Calif.). Immunoblots are developed using the enhanced chemiluminescence (ECL) detection system (Thermo Fisher Scientific, Rockford, Ill.). Intensity of protein bands is quantified using ImageJ software.
Cell lysates are harvested by addition of RIPA lysis buffers containing 25 mM Tris*HCl pH 7.6, 150 mM NaCl, 1% NP-40, 1% sodium deoxycholate, 0.1% SDS, 10 mM EDTA, 1 mM sodium orthovanadate, 0.1 mM sodium molybdate, 1 mM phenylmethylsulfonyl fluoride, 20 μg/mL aprotinin, and 5 μg/mL leupeptin. The cell lysates are harvested and processed as described. […] Protein lysates collected for Western blotting. […] Intensity of protein bands is quantified using ImageJ software. […]

“Also recorded” adds a separate entry of the source. Some results are limits rather than exact numbers.

`CC(C)c1ccc2c(c1)CCC1[C@](C)(CNC(=O)C(F)(F)F)CCC[C@]21C` (stereo partly drawn) [Compound 5a, N-{[(1R,4aS)-1,4a-dimethyl-7-(propan-2-yl)-1,2,3,4,4a,9,10,10a-octahydrophenanthren-1-yl]methyl}-2,2,2-trifluoroacetamide] showed an IC50 in experiment [1] of 8.63 ± 0.97 µM. For the same compound, in the experiment with STAT signaling pathway, the “STAT3 pathway (pSTAT3)” value was “decrease pSTAT3 expression at all doses”.

In experiment [1], `CC(C)C1=CC2=CCC3[C@](C)(CN)CCC[C@]3(C)C2CC1` (stereo partly drawn) [Compound 4a, {[(1R,4aR)-1,4a-dimethyl-7-(propan-2-yl)-1,2,3,4,4a,4b,5,6,10,10a-decahydrophenanthren-1-yl]methyl}amine] registered an IC50 of 14.8 ± 1.99 µM. The “STAT3 pathway (pSTAT3)” value with STAT signaling pathway is “decrease pSTAT3 expression at all doses”.

Turning to `CC(C)c1ccc2c(c1)CCC1[C@](C)(CN)CCC[C@]21C` (stereo partly drawn) [Leelamine, [(1R,4aS)-1,4a-dimethyl-7-(propan-2-yl)-1,2,3,4,4a,9,10,10a-octahydrophenanthren-1-yl]methanamine], inhibition in experiment [1] was half-maximal at 10.9 ± 2.11 µM (IC50). Further, the STAT pathway signaling result with STAT signaling pathway (3 to 6 μmol/L for 3 to 24 hours, UACC 903 and 1205 Lu) is given as “decrease activity”. Besides, the “STAT3 pathway (pSTAT3)” value in the experiment on STAT signaling pathway is on record as “completely blocked pSTAT3 expression; also recorded: decrease pSTAT3 expression at all doses”.

In experiment [1], `CC(C)C1=CC2=CCC3[C@](C)(CCC[C@@]3(C)C(=O)O)C2CC1` (stereo partly drawn) [Abietic acid, (1R,4aR)-1,4a-dimethyl-7-(propan-2-yl)-1,2,3,4,4a,4b,5,6,10,10a-decahydrophenanthrene-1-carboxylic acid, reference compound] came in with an IC50 above 100 µM. The “STAT3 pathway (pSTAT3)” value in the experiment with STAT signaling pathway is “unable to affect”.
